Results taken from the NIST ThermoML archive (doi:10.1021/acs.jced.5b00135).
± gives the expanded uncertainty stated by the source.

Experiments:
[1] = Molar enthalpy of transition or fusion; details: Crystal; DSC
[2] = Crystal; DTA

For C=CC(=O)NC(C)(C)C [N-tert-butylacrylamide], the “Molar enthalpy of transition or fusion” value [1] was 5.16 ± 0.263 kcal/mol and the Normal melting temperature [2] was 128.50 ± 0.7 °C.
